Laboratory results from patent US20240016788A1, “PHARMACEUTICAL COMPOSITION FOR PREVENTING OR TREATING DIABETIC AND POSTMENOPAUSAL OSTEOPOROSIS, CONTAINING ADIPORON” (PnP Biopharm Co., Ltd., priority 2020, published 2024).

Key:
Type in all cases: in vivo
[1] = test system: type 2 diabetic db/db mice; test: Body weight, blood biochemistry and 24-hour urine oxidative stress in diabetic osteoporosis model db/db mice
Description: A leptin receptor-defective type 2 diabetic animal model (db/db mice) and a normal control group (db/m mice) were used, and the experiment was performed by dividing into 4 groups as follows: non-diabetic control group (dm cont, n=8), non-diabetic adiporon treatment group (dm+AdipoR, n=8), diabetic control group (db cont, n=8) and diabetic adiporon treatment group (db+AdipoR, n=8). The control group was fed a normal diet, and the adiporon treatment group was fed a diet comprising adiporon (30 mg/kg/day) for 4 weeks from 16 weeks of age. During the experiment, body weight was measured every week, fasting blood glucose was measured using an Accu-Chek meter (Roche Diagnostics, St. Louis, MO) every 2 weeks after blood was collected from the tail vein, and glycated hemoglobin (HbA1c) was measured every 4 weeks using a […] automatic analyzer (Bayer healthcare LLC, IN) after blood was collected from the tail vein. The temperature and humidity of the breeding room were maintained at 20˜25° C. and 50˜60%, respectively, and the lights were turned on and off at 12-hour intervals. In both experiments, blood collected from each mouse was allowed to stand at room temperature for 30 minutes, and then centrifuged at 3000 rpm for 15 minutes to obtain serum. Blood levels of tartrate-resistant acid phosphatase (TRAP/ACP5) and osterocalcin concentration were measured by ELISA. In addition, 8-hydroxy-deoxyguanosine, a DNA damage marker caused by oxidative stress, and isoprostane, a marker of oxidative stress caused by lipid peroxidation caused by free fatty acids, and deoxypyridinoline (DPP), which indicates the function of osteoclasts, were measured in 24-hour urine concentrations by ELISA method.

[2] = test system: type 2 diabetic db/db mice; test: Histological examination (H&E, trichrome, Safranin O) of ilium (femur) and lumbar vertebra 5, db/db mice; details: adiporon 30 mg/kg/day, 4 weeks
Description: A leptin receptor-defective type 2 diabetic animal model (db/db mice) and a normal control group (db/m mice) were used, and the experiment was performed by dividing into 4 groups as follows: non-diabetic control group (dm cont, n=8), non-diabetic adiporon treatment group (dm+AdipoR, n=8), diabetic control group (db cont, n=8) and diabetic adiporon treatment group (db+AdipoR, n=8). The control group was fed a normal diet, and the adiporon treatment group was fed a diet comprising adiporon (30 mg/kg/day) for 4 weeks from 16 weeks of age. During the experiment, body weight was measured every week, fasting blood glucose was measured using an Accu-Chek meter (Roche Diagnostics, St. Louis, MO) every 2 weeks after blood was collected from the tail vein, and glycated hemoglobin (HbA1c) was measured every 4 weeks using a […] automatic analyzer (Bayer healthcare LLC, IN) after blood was collected from the tail vein. The temperature and humidity of the breeding room were maintained at 20˜25° C. and 50˜60%, respectively, and the lights were turned on and off at 12-hour intervals. After removing tissues of the femur and L5 lumbar vertebrae, some of them were fixed in 10% formalin for immunostaining and decalcified. Thereafter, after neutralization with 0.5M Phosphate buffer (pH 7.4), washing, and embedding in paraffin. Tissue sections were cut to a thickness of 5 μm, and hematoxylin and eosin staining (H&E staining), trichrome staining, and Safranin O staining were performed. In bone tissue, double immunofluorescence staining method was performed using anti-adiponectin receptor 1/2 antibody, anti-perilipin-1 antibody, anti-RANKL antibody, anti-TNF-α antibody, and ApopTag Fluorescein In Situ Apoptosis Detection Kit (Chemicon International, Temecula, CA) and expression was observed using a confocal microscope.

[3] = test system: ovariectomized C57BL/6 mice; test: Micro-CT of ilium (femur) and lumbar vertebra 5, ovariectomized mice; details: 6 weeks
Description: 7 weeks after ovariectomization or sham surgery of 7-week-old C57BL/6 mice, normal feed group (adiporon non-administered group; control group) administration group, 2.5 mg/kg day or 25 mg/kg day, respectively Feed comprising adiporon was consumed for 6 weeks from 14 weeks of age. Body weight was measured every week during the experiment period, and the experiment was conducted after 6 weeks of administration. The imaging was performed with micro-CT (Skyscan 1172, Belgium), the tube voltage was 60 kV, the tube current was 167 uA, 0.5 mm aluminum filtration was used, and the pixel size was 5.9 μm. For the shooting angle, a 2-dimensional image was reconstructed with Nrecon Reconstruction (Skyscan, Belgium). For 3D image analysis, CTAn (Skyscan, Belgium) was used, images were obtained by rotating 360°, and exposure time was 440 ms. A total of 7 types of indicators were used in this invention. BMD (bone mineral density, bone density) was measured based on phantoms of 0.25 g/cm^3 and 0.75 g/cm^3. BV/TV (Bone volume/Total volume, percent bone volume, %) is the ratio of voxels representing the solid region out of the total voxels present in the binarized and surfaced volume of interest, and it means the ratio occupied by bone trabeculae within the volume of interest, and i.s (Interception surfaces, mm2) means the generation of new bone. i.s (Interception surfaces, mm^2) means the creation of new bone. BS/BV (Bone surface/Bone volume, bone specific surface, mm^−1) is the ratio of the voxel surface area to the number of voxels in the binarized solid region within the volume of interest and it means the ratio of the surface area of the trabecular bone to the volume of the trabecular bone. The lower the value, the higher the bone strength. Tb.Th (trabecular thickness, mm) is obtained by averaging the diameters of these spheres, after placing a sphere comprising the corresponding voxel for each voxel representing the solid region within the volume of interest so that the size of the sphere is the largest that includes only the solid region and it means the average thickness of the trabecular bone. After making it possible, it is obtained by averaging the diameters of these spheres, which means the average thickness of the trabecular bone. In the same way, using Tb.Sp (trabecular separation, mm), the average length between trabecular lines and Tb.N (trabecular number, mm^−1) were used to obtain the average number of trabecular lines.

[4] = db/db mice (type 2 diabetic), adiporon 30 mg/kg/day in diet for 4 weeks, mean ± SD
[5] = db/db mice, adiporon 30 mg/kg/day, 4 weeks, result in words
[6] = vertebrae (lumbar vertebrae 5), adiporon 2.5 mg/kg day
[7] = vertebrae (lumbar vertebrae 5), adiporon 25 mg/kg day

`Cl.O=C(COc1ccc(C(=O)c2ccccc2)cc1)NC1CCN(Cc2ccccc2)CC1` [adiporon] was tested, and the Body wt [1, 4] was 53 ± 4.8 g, the “Urinary 8-OHDG” value [1, 4] was 74.5 ± 19.6 ng/24 h and the Urinary isoprostane [1, 4] was 19.3 ± 9.4 ng/24 h. The “Changes of body weight, blood glucose, glycated hemoglobin, blood total cholesterol, triglyceride, free fatty acid and blood adiponectin” value ([1]; db/db mice vs db/m, adiporon 30 mg/kg/day, 4 weeks, result in words) was “restored”, the “24-hour urine concentration of 8-hydroxy-deoxyguanosine (increase in db/db)” value [1, 5] was “improved the index increase” and the “24-hour urine concentration of isoprostane (increase in db/db)” value [1, 5] was “improved the index increase”. For the same compound, the “Decrease in the ilium growth plate (thickness)” value ([2]; ilium (femur)) was “recovered”, the “Increase in adipose tissue in tissue” value ([2]; ilium (femur)) was “recovered” and the “Increase in fibrosis in tissue” value ([2]; ilium (femur)) was “recovered”. The “Increase in adipose tissue in tissue” value ([2]; vertebrae (lumbar vertebrae 5)) was “reversed”, the “Increase in fibrosis in tissue” value ([2]; vertebrae (lumbar vertebrae 5)) was “reversed” and the “Bone mineral density indicator (micro-CT)” value ([3]; ilium, adiporon 2.5 mg/kg day) was “increased and improved”. For the same compound, the “Bone surface indicator (micro-CT)” value ([3]; ilium, adiporon 2.5 mg/kg day) was “increased and improved”, the “Bone volume indicator (micro-CT)” value ([3]; ilium, adiporon 2.5 mg/kg day) was “increased and improved” and the “Trabecular number indicator (micro-CT)” value ([3]; ilium, adiporon 2.5 mg/kg day) was “increased and improved”. For the same compound, the “Trabecular thickness indicator (micro-CT)” value ([3]; ilium, adiporon 2.5 mg/kg day) was “increased and improved”, the “Bone mineral density indicator (micro-CT)” value ([3]; ilium, adiporon 25 mg/kg day) was “increased and improved” and the “Bone surface indicator (micro-CT)” value ([3]; ilium, adiporon 25 mg/kg day) was “increased and improved”. For the same compound, the “Bone volume indicator (micro-CT)” value ([3]; ilium, adiporon 25 mg/kg day) was “increased and improved”, the “Trabecular number indicator (micro-CT)” value ([3]; ilium, adiporon 25 mg/kg day) was “increased and improved” and the “Trabecular thickness indicator (micro-CT)” value ([3]; ilium, adiporon 25 mg/kg day) was “increased and improved”. The “Bone mineral density indicator (micro-CT)” value [3, 6] was “increased and improved”, the “Bone surface indicator (micro-CT)” value [3, 6] was “increased and improved” and the “Bone volume indicator (micro-CT)” value [3, 6] was “increased and improved”. The “Trabecular number indicator (micro-CT)” value [3, 6] was “increased and improved”, the “Trabecular thickness indicator (micro-CT)” value [3, 6] was “increased and improved” and the “Bone mineral density indicator (micro-CT)” value [3, 7] was “increased and improved”. The “Bone surface indicator (micro-CT)” value [3, 7] was “increased and improved”, the “Bone volume indicator (micro-CT)” value [3, 7] was “increased and improved” and the “Trabecular number indicator (micro-CT)” value [3, 7] was “increased and improved”. The “Trabecular thickness indicator (micro-CT)” value [3, 7] was “increased and improved”.
